Test results published in patent US10231967B2, “Compounds and their use as BACE inhibitors” (ASTRAZENECA AB, priority 2010, dated 2019).

What follows are molecules tested on sAPPβ release in SH-SY5Y cells (assay: sAPPβ release assay). Details: Homo sapiens, SH-SY5Y, 17 h, compounds incubated 17 h, MSD detection.
Type: cell-based
Method: Thaw cells and seed at a conc. of around 10000 cells/well in DMEM/F-12 with Glutamax, 10% FCS and 1% non-essential amino acids to a 384-well tissue culture treated plate, 100 μL cell susp/well. […] The cell medium was removed, followed by addition of 30 μL compound diluted in DMEM/F-12 with Glutamax, 10% FCS, 1% non-essential amino acids and 1% PeSt to a final conc. of 1% DMSO. The compounds were incubated with the cells for 17 h (overnight) at 37° C., 5% CO2. Meso Scale Discovery (MSD) plates were used for the detection of sAPPβ release. MSD sAPPβ plates were blocked in 1% BSA in Tris wash buffer (40 μL/well) for 1 h on shake at r.t. and washed 1 time in Tris wash buffer (40 μL/well). 20 μL of medium was transferred to the pre-blocked and washed MSD sAPPβ microplates, and the cell plates were further used in an ATP assay to measure cytotoxicity. The MSD plates were incubated with shaking at r.t. for 2 h and the media discarded. 10 μL detection antibody was added (1 nM) per well followed by incubation with shaking at r.t. for 2 h and then discarded. 40 μL Read Buffer was added per well and the plates were read in a SECTOR Imager.

Q: `CO[C@H]1CC[C@]2(CC1)Cc1ccc(C#CC(C)(C)C)cc1C21N=C(C)C(N)=N1` (stereo partly shown) [Example 20h] was tested. Which IC50 did it give?
A: 7.1 nM

Q: `CO[C@H]1CC[C@]2(CC1)Cc1ccc(NC(=O)c3ccc(C(F)(F)F)cn3)cc1C21N=C(C)C(N)=N1` (stereo partly shown) [Example 20k, N-[(1r,4r)-4″-Amino-4-methoxy-5″-methyl-3′H-dispiro[cyclohexane-1,2′-indene-1′,2″-imidazol]-6′-yl]-5-(trifluoromethyl)pyridine-2-carboxamide] was tested. Which IC50 did it give?
A: 8.6 nM

Q: For `CO[C@H]1CC[C@]2(CC1)Cc1ccc(NC(=O)c3ncc(Cl)cc3Cl)cc1C21N=C(C)C(N)=N1` (stereo partly shown) [Example 20o, N-[(1r,4r)-4″-Amino-4-methoxy-5″-methyl-3′H-dispiro[cyclohexane-1,2′-indene-1′,2″-imidazol]-6′-yl]-3,5-dichloropyridine-2-carboxamide], which IC50 is on record?
A: 9.2 nM

Q: How did the IC50 turn out when `CO[C@H]1CC[C@]2(CC1)Cc1ccc(NC(=O)c3ccc(Cl)cn3)cc1C21N=C(C)C(N)=N1` (stereo partly shown) [Example 20q, N-[(1r,4r)-4″-Amino-4-methoxy-5″-methyl-3′H-dispiro[cyclohexane-1,2′-indene-1′,2″-imidazol]-6′-yl]-5-chloropyridine-2-carboxamide] was run?
A: 3.8 nM

Q: `CO[C@H]1CC[C@]2(CC1)Cc1ccc(OCCC(F)(F)F)cc1C21N=C(C)C(N)=N1` (stereo partly shown) [Example 20u, (1r,4r)-4-methoxy-5″-methyl-6′-(3,3,3-trifluoropropoxy)-3′H-dispiro[cyclohexane-1,2′-indene-1′,2″-imidazol]-4″-amine] was tested. Which IC50 did it give?
A: 0.63 nM

Same assay, conditions: Homo sapiens, compounds incubated 17 h, MSD detection

Q: How did the IC50 turn out when `CO[C@H]1CC[C@]2(CC1)Cc1ccc(-c3cc(C#N)cc(C#N)c3)cc1C21N=C(C)C(N)=N1` (stereo partly shown) [Example 20c, 5-[(1r,4r)-4″-Amino-4-methoxy-5″-methyl-3′H-dispiro[cyclohexane-1,2′-indene-1′,2″-imidazol]-6′-yl]benzene-1,3-dicarbonitrile] was run?
A: 1.7 nM

Q: `CO[C@H]1CC[C@]2(CC1)Cc1ccc(-c3cncc(F)c3)cc1C21N=C(C)C(N)=N1` (stereo partly shown) [Example 20f, (1r,4r)-6′-(5-Fluoropyridin-3-yl)-4-methoxy-5″-methyl-3′H-dispiro[cyclohexane-1,2′-indene-1′,2″-imidazol]-4″-amine] was tested. Which IC50 did it give?
A: 3.3 nM

Q: For `CO[C@H]1CC[C@]2(CC1)Cc1ccc(NC(=O)c3ncc(Br)cn3)cc1C21N=C(C)C(N)=N1` (stereo partly shown) [Example 20j, N-[(1r,4r)-4″-Amino-4-methoxy-5″-methyl-3′H-dispiro[cyclohexane-1,2′-indene-1′,2″-imidazol]-6′-yl]-5-bromopyrimidine-2-carboxamide], which IC50 is on record?
A: 91 nM

Q: `CO[C@H]1CC[C@]2(CC1)Cc1ccc(NC(=O)c3oc4cc(Cl)ccc4c3C)cc1C21N=C(C)C(N)=N1` (stereo partly shown) [Example 20n, N-[(1r,4r)-4″-Amino-4-methoxy-5″-methyl-3′H-dispiro[cyclohexane-1,2′-indene-1′,2″-imidazol]-6′-yl]-6-chloro-3-methyl-1-benzofuran-2-carboxamide] was tested. Which IC50 did it give?
A: 3.7 nM

Q: With `CO[C@H]1CC[C@]2(CC1)Cc1ccc(OCCCF)cc1C21N=C(C)C(N)=N1` (stereo partly shown) [Example 20v] as the molecule, how does the IC50 read?
A: 1.2 nM

Q: `CO[C@H]1CC[C@]2(CC1)Cc1ccc(NC(=O)c3ncc(Cl)cc3C)cc1C21N=C(C)C(N)=N1` (stereo partly shown) [Example 20w, N-[(1r,4r)-4″-Amino-4-methoxy-5″-methyl-3′H-dispiro[cyclohexane-1,2′-indene-1′,2″-imidazol]-6′-yl]-5-chloro-3-methylpyridine-2-carboxamide] was tested. Which IC50 did it give?
A: 5.7 nM

Q: How did the IC50 turn out when `CO[C@H]1CC[C@]2(CC1)Cc1ccc(NC(=O)c3ccc(F)cn3)cc1C21N=C(C)C(N)=N1` (stereo partly shown) [Example 20x, N-[(1r,4r)-4″-Amino-4-methoxy-5″-methyl-3′H-dispiro[cyclohexane-1,2′-indene-1′,2″-imidazol]-6′-yl]-5-fluoropyridine-2-carboxamide] was run?
A: 29 nM

Q: How did the IC50 turn out when `CC#Cc1cc(-c2ccc3c(c2)C2(N=C(C)C(N)=N2)[C@]2(CC[C@H](OC)CC2)C3)ccn1` (stereo partly shown) [Example 20y, (1r,4r)-4-Methoxy-5″-methyl-6′-[2-(prop-1-yn-1-yl)pyridin-4-yl]-3′H-dispiro[cyclohexane-1,2′-indene-1′,2″-imidazol]-4″-amine] was run?
A: 1.2 nM
